According to patent US11766447B2, “3′3′-cyclic dinucleotide analogue comprising a cyclopentanyl modified nucleotide as sting modulator” (INSTITUTE OF ORGANIC CHEMISTRY AND BIOCHEMISTRY ASCR, V.V.I., priority 2019, dated 2023):

Assays:
AQ STING (G230A-R293Q) = biological target: T1, AQ STING (G230A-R293Q) (Homo sapiens, UniProt Q86WV6, G230A/H232R/R293Q); test: Differential scanning fluorimetry (DSF) with AQ STING; format: binding; settings: thermal shift vs apoprotein; 150 μM CDN; truncated human AQ STING 0.1 mg/ml
T1 construct: 8xHis (N, cleaved yes); SUMO (N, cleaved yes); made in house; host or cells: E. coli Rosetta-gami B (DE3)
Description: (§1) Purified PCR products were cleaved with restriction enzymes BamHI (cat. #R0136S, NEB, Ipswich, USA) and NotI (cat. #R0189S, NEB, Ipswich, USA) and cloned into the pSUMO vector linearized with the identical enzymes.
(§2) DNase I (cat. #D5025, Sigma Aldrich, Czech Republic) and RNase A (cat. #R6513, Sigma Aldrich, Czech Republic) were added (final concentration 50 μg/ml) together with MgCl2 (final concentration 5 mmol·l^−1) to the homogenate and bacteria were lysed using French Press G-M™ High-Pressure Cell Press Homogenizer (1500 psi, 3 cycles). […] The resin was poured into a chromatography column, washed with 50 ml buffer A (50 mmol·l^−1 TrisCl (pH 8.0), 800 mmol·l^−1 NaCl, 3 mmol·l^−1 β-mercaptoethanol; 10% glycerol; 20 mmol·l^−1 imidazol) and 8-His-SUMO tagged STING proteins were eluted with 15 ml buffer A containing 300 mmol·l^−1 imidazole. […] Proteins were concentrated with Amicon® Ultra-15 10 K device (cat. #UFC901008, Merck Millipore, Billerica, USA) and flash frozen in liquid N2.
(§3) 20 μL solutions of the reaction mixtures were pipetted in triplicates into 96 well optical reaction plates and thermal denaturation of samples were performed on real time PCR cycler (LightCycler® 480 Instrument II—Roche, Basel, Switzerland). The first derivative of the thermal denaturation curves was performed to calculate denaturing temperatures of STING-CDN complexes and STING apoproteins. The thermal shift for each CDN was calculated by subtracting the average denaturing temperature of STING apoprotein from the average denaturing temperature of STING CDN complex.

WT STING [1] = biological target: T2, WT STING (Homo sapiens, UniProt Q86WV6, H232R); test: Digitonin assay using 293T wtSTING-FL reporter cells; format: cell-based; set-up: host or cells: 293T (ATCC CRL-3216), stably transfected, with 4xISRE firefly luciferase reporter; settings: 293T wtSTING-FL cells, ISRE firefly luciferase; compounds in Digitonin buffer 30 minutes, then 5 hours; 8-point curve
Source text: Two complementary oligonucleotides of the sequence […] […] […] […] […] The oligonucleotides were mixed in equal molar amounts, hybridized, and cleaved by restriction endonucleases HindIII (cat. #. R0104S, NEB, Ipswich, USA) and BglII (cat. #R0144S, NEB, Ipswich, USA). Ultimately, they were ligated into plasmid pGL4.27 (cat. #E6651, Promega, Madison, USA) linearized with the same enzymes. As result the sequence with four ISRE sites was placed upstream of the minimum promoter of firefly luciferase reporter gene.
After 5 minutes incubation at room temperature (RT), 250 μL of the mixture was added dropwise to the cells in one well. Cells were incubated 36 hours at 37° C. with 5% CO2, and then detached with 0.05% Trypsin and 0.22 g/L EDTA (both cat. #L0941, Biowest, Riverside, USA).
Transfected cells were seeded onto poly-D-lysine coated six well plates at density 50,000 cells per 1 cm^2 in DMEM medium with high glucose containing 10% heat inactivated FBS, 30 μg/mL blasticidin (cat. #ant-b1-05, InvivoGen, San Diego, USA), 0.06 mg/ml Penicillin G and 0.1 mg/ml Streptomycin Sulfate (both cat. #. L0018, Biowest, Riverside, USA). The medium was replenished every 3-4 days until visible colonies of cells resistant to blasticidin were formed.
Blasticidin resistant cells stably expressing WT STING were further transfected with […] plasmid following the same procedure as described above. […] Homogeneous culture of stably double transfected cells was prepared by limiting dilution of cells in 96 well plates and wells with cells were selected that originated from a single cell.
The medium was removed next day and three fold serial dilutions of compounds in Digitonin buffer containing 50 mmol·l^−1 HEPES (cat. #H3375, Sigma Aldrich, Czech Republic) pH 7.0, 100 mmol·l^−1 KCl, 3 mmol·l^−1 MgCl2, 0.1 mmol·l^−1 DTT (cat. #D0632, Sigma Aldrich, Czech Republic), 85 mmol·l^−1 Sucrose (cat. #S7903, Sigma Aldrich, Czech Republic), 0.2% BSA (cat. #A2153, Sigma Aldrich, Czech Republic), 1 mmol·l^−1 ATP (cat. #A1852, Sigma Aldrich, Czech Republic), 0.1 mmol·l^−1 GTP (cat. #G8877, Sigma Aldrich, Czech Republic), and 10 μg/mL Digitonin A (cat. #D141, Sigma Aldrich, Czech Republic) were added to the cells. The buffer was removed after 30 minutes incubation at 37° C. with 5% CO2, the cells were washed once with 100 μl of cultivation medium, and 100 μl of medium was added to each well. The plates with cells were incubated for 5 hours at 37° C. with 5% CO2, 50 μl of the medium was removed and 30 μl of ONE-Glo™ Luciferase Assay System reagent (cat. #E6120, Promega, Madison, USA) was added to each well. Luminescence was read on Synergy H1 (Biotek, Winooski, USA). GraphPad Prism (La Jolla, USA) was used to calculate the 50% effective concentration ([…] from an 8-point dose-response curve.
Target sequence in this assay (Q86WV6 whole entry H232R): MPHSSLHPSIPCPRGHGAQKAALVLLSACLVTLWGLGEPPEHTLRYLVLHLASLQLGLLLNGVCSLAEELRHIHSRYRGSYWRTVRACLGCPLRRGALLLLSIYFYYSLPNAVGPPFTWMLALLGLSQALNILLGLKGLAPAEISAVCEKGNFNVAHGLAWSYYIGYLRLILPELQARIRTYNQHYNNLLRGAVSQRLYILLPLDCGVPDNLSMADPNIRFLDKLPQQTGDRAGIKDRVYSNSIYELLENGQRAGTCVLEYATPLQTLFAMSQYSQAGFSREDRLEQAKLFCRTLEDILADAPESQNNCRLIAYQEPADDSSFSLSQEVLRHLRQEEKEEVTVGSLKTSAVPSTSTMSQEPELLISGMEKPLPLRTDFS

WT STING [2] = biological target: T2, WT STING; test: Differential scanning fluorimetry (DSF) with WT STING; format: binding; set-up: 8xHis (N, cleaved yes); SUMO (N, cleaved yes); made in house; host or cells: E. coli Rosetta-gami B (DE3); settings: thermal shift vs apoprotein; 150 μM CDN; truncated human WT STING 0.1 mg/ml
Description: as §1, §2, §3
Target sequence in this assay (Q86WV6 140-343 H232R): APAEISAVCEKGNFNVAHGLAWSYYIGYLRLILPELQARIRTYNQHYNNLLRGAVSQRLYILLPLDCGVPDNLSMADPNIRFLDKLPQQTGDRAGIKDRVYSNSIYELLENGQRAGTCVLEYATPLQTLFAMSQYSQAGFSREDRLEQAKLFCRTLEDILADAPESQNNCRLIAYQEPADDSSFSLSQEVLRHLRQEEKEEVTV

T1 sequence (Q86WV6 140-343 G230A/H232R/R293Q): as the sequence (Q86WV6 140-343 H232R) above, with G91A, R154Q counted along it

ΔTm at 150 µM (AQ STING (G230A-R293Q))	EC50 (WT STING [1])	ΔTm at 150 µM (WT STING [2])	DSF ΔTm (° C.) AQ STING (AQ STING (G230A-R293Q))	DSF ΔTm (° C.) WT STING (WT STING [2])	SMILES
13.1 °C	7 nM	8.5 °C			Nc1nc2c(ncn2[C@H]2CC3OP(=O)(O)OC[C@H]4O[C@@H](n5cnc6c(N)ncnc65)C(F)C4OP(=O)(O)OC[C@H]3C2)c(=O)[nH]1 (stereo partly drawn) [Compound 116, (6R,8R,15R,17R)-17-(2-amino-6-oxo-6,9-dihydro-1H-purin-9-yl)-8-(6-amino-9H-purin-9-yl)-9-fluoro-3,12-dihydroxy-2,4,7,11,13-pentaoxa-3λ^5,12λ^5-diphosphatricyclo[13.3.0.0^6,10]octadecane-3,12-dione]
13.2 °C	20 nM	6.4 °C			Nc1ncnc2c1ncn2[C@@H]1C[C@@H]2COP(=O)(O)O[C@H]3[C@@H](F)[C@H](n4cnc5c(N)ncnc54)O[C@@H]3COP(=O)(O)O[C@H]2[C@H]1O [Compound 134, (1R,6R,8R,9R,10R,15R,17R,18S)-8,17-bis(6-amino-9H-purin-9-yl)-9-fluoro-3,12,18-trihydroxy-2,4,7,11,13-pentaoxa-3λ^5,12λ^5-diphosphatricyclo[13.3.0.0^6,10]octadecane-3,12-dione]
4.6 °C	21800 nM	0.4 °C			COC1C2OP(=O)(O)OC[C@H]3C[C@@H](n4cnc5c(N)ncnc54)C(O)C3OP(=O)(O)OC[C@H]2O[C@H]1n1cnc2c(=O)[nH]c(N)nc21 (stereo partly drawn) [Compound 114, 2-amino-9-((2R,3R,3aR,7aR,9R,10S,10aR,14aR)-9-(6-amino-9H-purin-9-yl)-5,10,12-trihydroxy-3-methoxy-5,12-dioxidodecahydro-2H-cyclopenta[d]furo[3,2-j][1,3,7,9]tetraoxa[2,8]diphosphacyclododecin-2-yl)-1,9-dihydro-6H-purin-6-one]
10.5 °C	70 nM	3.8 °C			Nc1nc2c(ncn2[C@H]2CC3OP(=O)(O)OC[C@H]4O[C@@H](n5cnc6c(N)ncnc65)C(O)C4OP(=O)(O)OC[C@H]3C2)c(=O)[nH]1 (stereo partly drawn) [Compound 115, (6R,8R,15R,17R)-17-(2-amino-6-oxo-6,9-dihydro-1H-purin-9-yl)-8-(6-amino-9H-purin-9-yl)-3,9,12-trihydroxy-2,4,7,11,13-pentaoxa-3λ^5,12λ^5-diphosphatricyclo[13.3.0.0^6,10]octadecane-3,12-dione]
5.1 °C	13200 nM	0.7 °C			Nc1ncnc2c1ncn2[C@H]1CC2OP(=O)(O)OC[C@H]3C[C@@H](n4cnc5c(N)ncnc54)CC3OP(=O)(O)OC[C@H]2C1 (stereo partly drawn) [Compound 125, (2R,3aS,7aR,9R,10aS,14aR)-2,9-bis(6-amino-9H-purin-9-yl)-5,12-dihydroxydodecahydrodicyclopenta[d,j][1,3,7,9]-tetraoxa[2,8]diphosphacyclododecine 5,12-dioxide]
4.4 °C	1200 nM	0.6 °C			Nc1ncnc2c1ncn2[C@@H]1C[C@@H]2COP(=O)(O)OC3C(O)[C@H](n4cnc5c(N)ncnc54)C[C@@H]3COP(=O)(O)OC2C1O (stereo partly drawn) [Compound 133, (2R,3S,3aR,7aR,9R,10S,10aR,14aR)-2,9-bis(6-amino-9H-purin-9-yl)-3,5,10,12-tetrahydroxydodecahydrodicyclopenta[d,j][1,3,7,9]tetraoxa[2,8]-diphosphacyclododecine 5,12-dioxide]
	120 nM		13.2 °C	5.2 °C	Nc1nc2c(ncn2[C@@H]2O[C@@H]3COP(=O)(O)OC4C(O)[C@H](n5cnc6c(N)ncnc65)C[C@@H]4COP(=O)(O)OC3C2O)c(=O)[nH]1 (stereo partly drawn) [Compound 112, 2-amino-9-((2R,3S,3aS,7aR,9R,10S,10aR,14aR)-9-(6-amino-9H-purin-9-yl)-3,5,10,12-tetrahydroxy-5,12-dioxidodecahydro-2H-cyclopenta[d]furo[3,2-j][1,3,7,9]tetraoxa[2,8]diphosphacyclododecin-2-yl)-1,9-dihydro-6H-purin-6-one]
